Several values for one entry are separate records, joined by “and”; a condition that tells them apart may be missing. Equal values may be shown once. Inconclusive results and toxic doses are left out.
System: P388 leukemia ip, CD2F1 mice, survival T/C
Test: NCI In Vivo Anticancer Drug Screen. Data for tumor model P388 Leukemia (intraperitoneal) in CD2F1 (CDF1) mice
Details: endpoint: median survival time, higher = longer survival
Summary of the method: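 Mice carrying the transplanted tumor received test compound or vehicle. Survival was recorded in each group, and the value is the treated-group measurement divided by that of the vehicle-treated control group.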

[1] = dose: 25.0 mg/kg/injection, schedule: Q01DX009 (ip), vehicle: saline with Tween-80
[2] = dose: 50.0 mg/kg/injection, schedule: Q01DX009 (ip), vehicle: saline with Tween-80
[3] = dose: 100.0 mg/kg/injection, schedule: Q01DX009 (ip), vehicle: saline with Tween-80
[4] = dose: 200.0 mg/kg/injection, schedule: Q01DX009 (ip), vehicle: saline with Tween-80
[5] = dose: 60.0 mg/kg/injection, schedule: Q01DX005 (ip), vehicle: saline with Tween-80
[6] = dose: 120.0 mg/kg/injection, schedule: Q01DX005 (ip), vehicle: saline with Tween-80
[7] = dose: 50.0 mg/kg/injection, schedule: Q01DX005 (ip), vehicle: Klucel (hydroxypropylcellulose) (HPC)
[8] = dose: 100.0 mg/kg/injection, schedule: Q01DX005 (ip), vehicle: Klucel (hydroxypropylcellulose) (HPC)
[9] = dose: 200.0 mg/kg/injection, schedule: Q01DX005 (ip), vehicle: Klucel (hydroxypropylcellulose) (HPC)
[10] = dose: 50.0 mg/kg/injection, schedule: Q01DX005 (ip), vehicle: saline with Tween-80
[11] = dose: 100.0 mg/kg/injection, schedule: Q01DX005 (ip), vehicle: saline with Tween-80
[12] = dose: 200.0 mg/kg/injection, schedule: Q01DX005 (ip), vehicle: saline with Tween-80

CC(C)c1ccccc1Oc1ccccc1N=C1CCN(C)C1
T/C (dose: 12.5 mg/kg/injection, schedule: Q01DX009 (ip), vehicle: saline): 100 % of control | T/C (dose: 25.0 mg/kg/injection, schedule: Q01DX009 (ip), vehicle: saline): 107 % of control | T/C (dose: 50.0 mg/kg/injection, schedule: Q01DX009 (ip), vehicle: saline): 100 % of control and 95 % of control

CN1CCN(Cc2ncc(C3CCCCC3)c(=O)[nH]2)CC1
T/C [1]: 100 % of control | T/C [2]: 102 % of control | T/C [3]: 97 % of control

CC1=NCCN=C(C)C1N=Nc1ccc(S(=O)(=O)N=C(N)N)cc1
T/C (dose: 100.0 mg/kg/injection, schedule: Q04DX003 (ip), vehicle: saline with Tween-80): 90 % of control | T/C (dose: 200.0 mg/kg/injection, schedule: Q04DX003 (ip), vehicle: saline with Tween-80): 92 % of control | T/C (dose: 400.0 mg/kg/injection, schedule: Q04DX003 (ip), vehicle: saline with Tween-80): 90 % of control

CC1OC(=O)C(=O)/C1=C1/CC(C)(C)N(c2ccccc2)N1 (configuration not stated)
T/C [1]: 104 % of control and 91 % of control | T/C [2]: 107 % of control and 108 % of control and 90 % of control | T/C [3]: 90 % of control and 96 % of control | T/C [4]: 88 % of control and 92 % of control

CS(=O)(=O)c1noc(N)n1
T/C (dose: 50.0 mg/kg/injection, schedule: Q01DX005 (ip), vehicle: saline): 115 % of control | T/C (dose: 100.0 mg/kg/injection, schedule: Q01DX005 (ip), vehicle: saline): 113 % of control | T/C (dose: 200.0 mg/kg/injection, schedule: Q01DX005 (ip), vehicle: saline): 115 % of control

C=CC(C(=O)O)S(=O)(=O)O (configuration not stated)
T/C (dose: 20.0 mg/kg/injection, schedule: Q01DX009 (ip), vehicle: saline with Tween-80): 112 % of control | T/C (dose: 40.0 mg/kg/injection, schedule: Q01DX009 (ip), vehicle: saline with Tween-80): 103 % of control

CCOC1CC2CCCN2O1 (configuration not stated)
T/C (dose: 75.0 mg/kg/injection, schedule: Q01DX009 (ip), vehicle: saline): 103 % of control | T/C (dose: 150.0 mg/kg/injection, schedule: Q01DX009 (ip), vehicle: saline): 100 % of control | T/C (dose: 300.0 mg/kg/injection, schedule: Q01DX009 (ip), vehicle: saline): 94 % of control

c1ccc(-c2nnc3c4[nH]c5ccccc5c4cnn23)cc1
T/C (dose: 100.0 mg/kg/injection, schedule: Q01DX001 (ip), vehicle: Klucel (hydroxypropylcellulose) (HPC)): 105 % of control | T/C (dose: 200.0 mg/kg/injection, schedule: Q01DX001 (ip), vehicle: Klucel (hydroxypropylcellulose) (HPC)): 105 % of control | T/C (dose: 400.0 mg/kg/injection, schedule: Q01DX001 (ip), vehicle: Klucel (hydroxypropylcellulose) (HPC)): 99 % of control

CN1CCOP(=O)(Oc2ccccc2)N1 (configuration not stated)
T/C [5]: 103 % of control | T/C [6]: 99 % of control | T/C (dose: 240.0 mg/kg/injection, schedule: Q01DX005 (ip), vehicle: saline with Tween-80): 100 % of control

Cc1nc(Nc2c(C)cccc2C)c2c(C)c(Cc3ccccc3)[nH]c2n1
T/C [7]: 89 % of control | T/C [8]: 89 % of control | T/C [9]: 104 % of control

CN(C)CC1C2CCC(C2)C1O (configuration not stated)
T/C [10]: 98 % of control | T/C [11]: 97 % of control | T/C [12]: 99 % of control

CCC(=N\N=C(N)N)/C(CC)=N/N=C(N)N
T/C [5]: 101 % of control | T/C [6]: 97 % of control

CCC[CH2][Sn]([CH2]CCC)([CH2]CCC)[C]1(CCCC2CO2)SCCCS1 (configuration not stated)
T/C (dose: 12.5 mg/kg/injection, schedule: Q01DX009 (ip), vehicle: saline with Tween-80): 86 % of control | T/C [1]: 94 % of control | T/C [2]: 108 % of control

C=CC1CN2CCC1CC2C(=O)c1ccnc2ccc(OC)cc12 (configuration not stated)
T/C [10]: 100 % of control | T/C [11]: 100 % of control | T/C [12]: 100 % of control

O=C1OCC/C1=C1/NC2CCCCC2NC1=O (configuration not stated)
T/C [2]: 94 % of control | T/C [3]: 94 % of control

O=c1c2sc3ccccc3c2ncn1/N=C/c1cccc(Cl)c1
T/C [7]: 96 % of control | T/C [8]: 97 % of control | T/C [9]: 88 % of control

Cn1c(=O)oc2cc(NC(N)=O)c(Br)cc21
T/C [7]: 92 % of control | T/C [8]: 87 % of control

O=C(Nc1ccc(NC(=O)C(Cl)(Cl)Cl)cc1)C(Cl)(Cl)Cl
T/C [1]: 105 % of control | T/C [2]: 91 % of control | T/C [3]: 92 % of control | T/C [4]: 99 % of control

From PubChem BioAssay AID330 (DTP/NCI, 2004)
